According to the NIST ThermoML archive (doi:10.1021/acs.jced.6b00772):

Conditions: Fluid (supercritical or subcritical phases), isochoric method

O=C(C(F)(F)C(F)(F)F)C(F)(C(F)(F)F)C(F)(F)F [dodecafluoro-2-methylpentan-3-one]
Conditions | mass density [kg/m3]
333.47 K, 4628.4 kPa | 1526.2
343.46 K, 3695.1 kPa | 1489
353.46 K, 597.1 kPa | 1425.9
353.46 K, 7818.2 kPa | 1488.3
363.45 K, 4019 kPa | 1425.2
373.46 K, 849.3 kPa | 1348
373.46 K, 7450.4 kPa | 1424.5
383.46 K, 3567.3 kPa | 1347.4
393.47 K, 6308 kPa | 1346.8
393.5 K, 1730.8 kPa | 1273.5
403.46 K, 831.5 kPa | 107.8
403.46 K, 9056.2 kPa | 1346.1
403.48 K, 1044.1 kPa | 1195.8
403.5 K, 3917.8 kPa | 1272.9
413.46 K, 1666.3 kPa | 1157.5
413.48 K, 873.1 kPa | 107.8
413.48 K, 2784 kPa | 1195.2
413.5 K, 6126.2 kPa | 1272.3
423.47 K, 3219 kPa | 1156.9
423.49 K, 913.6 kPa | 107.7
423.49 K, 4554.9 kPa | 1194.6
423.49 K, 8348.4 kPa | 1271.7
433.46 K, 1423 kPa | 209.1
433.47 K, 4799.8 kPa | 1156.4
433.48 K, 2354.6 kPa | 1044.1
433.49 K, 953.3 kPa | 107.7
433.49 K, 1785.7 kPa | 980.1
433.49 K, 6349 kPa | 1194.1
443.47 K, 1703.9 kPa | 270.5
443.48 K, 1517.2 kPa | 209
443.48 K, 1862.8 kPa | 384.5
443.48 K, 1909.2 kPa | 553.6
443.48 K, 2368.4 kPa | 932
443.48 K, 6401.8 kPa | 1155.8
443.49 K, 991.3 kPa | 107.6
443.49 K, 1905.5 kPa | 490.7
443.49 K, 1950.5 kPa | 733.6
443.5 K, 1925.1 kPa | 626.4
443.5 K, 1983.4 kPa | 797.9
443.5 K, 2050.5 kPa | 844.7
443.5 K, 2089.1 kPa | 861.9
443.5 K, 2696.6 kPa | 979.6
443.5 K, 3478.7 kPa | 1043.6
443.5 K, 8156.2 kPa | 1193.5
453.48 K, 3187.2 kPa | 931.6
453.49 K, 1028.2 kPa | 107.6
453.49 K, 2074 kPa | 384.3
453.49 K, 2237.3 kPa | 553.3
453.49 K, 2415.6 kPa | 733.2
453.49 K, 8016.6 kPa | 1155.3
453.5 K, 1608.6 kPa | 208.9
453.5 K, 1836 kPa | 270.4
453.5 K, 2302.1 kPa | 626.1
453.5 K, 2679.9 kPa | 844.3
453.51 K, 3642.6 kPa | 979.1
453.51 K, 4628.3 kPa | 1043.2
453.52 K, 2543.8 kPa | 797.5
453.52 K, 2753.3 kPa | 861.5
453.52 K, 9972.1 kPa | 1192.9
453.53 K, 2192.7 kPa | 490.4
463.48 K, 1697.6 kPa | 208.8
463.49 K, 1963.3 kPa | 270.2
463.49 K, 5794.1 kPa | 1042.7
463.5 K, 1065.3 kPa | 107.5
463.5 K, 2277.3 kPa | 384.1
463.5 K, 2561.8 kPa | 553
463.5 K, 2685.7 kPa | 625.8
463.5 K, 2908.5 kPa | 732.9
463.5 K, 4032.8 kPa | 931.2
463.5 K, 9636.7 kPa | 1154.7
463.51 K, 2470.7 kPa | 490.2
463.51 K, 3127.9 kPa | 797.1
463.51 K, 3336.1 kPa | 843.9
463.52 K, 3442 kPa | 861.1
463.52 K, 4610 kPa | 978.7
473.49 K, 2087.5 kPa | 270.1
473.49 K, 3412 kPa | 732.5
473.49 K, 4891.4 kPa | 930.7
473.5 K, 1102 kPa | 107.5
473.5 K, 1785 kPa | 208.7
473.5 K, 2476.2 kPa | 383.9
473.5 K, 2884.8 kPa | 552.8
473.5 K, 3074.2 kPa | 625.5
473.51 K, 2746.7 kPa | 490
473.51 K, 5591.7 kPa | 978.2
473.51 K, 6974.8 kPa | 1042.2
473.52 K, 4008.9 kPa | 843.5
473.52 K, 4147 kPa | 860.7
473.53 K, 3727.6 kPa | 796.7
483.48 K, 5762.4 kPa | 930.3
483.49 K, 1870.9 kPa | 208.6
483.49 K, 2209.8 kPa | 270
483.49 K, 2672.1 kPa | 383.8
483.5 K, 3464.6 kPa | 625.2
483.5 K, 3924.7 kPa | 732.2
483.5 K, 8161 kPa | 1041.7
483.51 K, 1138.4 kPa | 107.4
483.51 K, 3208.9 kPa | 552.5
483.52 K, 3020.8 kPa | 489.7
483.52 K, 4336.7 kPa | 796.4
483.52 K, 4691.3 kPa | 843.1
483.52 K, 4863.8 kPa | 860.3
483.52 K, 6584 kPa | 977.8
493.49 K, 1955 kPa | 208.5
493.49 K, 2329.9 kPa | 269.9
493.49 K, 2865 kPa | 383.6
493.5 K, 3858.2 kPa | 624.9
493.5 K, 4442.7 kPa | 731.8
493.5 K, 6642.5 kPa | 929.8
493.5 K, 9354.4 kPa | 1041.2
493.51 K, 1174.7 kPa | 107.4
493.51 K, 5382.6 kPa | 842.7
493.52 K, 3532.9 kPa | 552.2
493.52 K, 4954.4 kPa | 796
493.52 K, 5589.2 kPa | 859.9
493.53 K, 7585.3 kPa | 977.3
493.54 K, 3292.9 kPa | 489.5
503.49 K, 7526.9 kPa | 929.4
503.5 K, 2038.9 kPa | 208.4
503.5 K, 2448.7 kPa | 269.7
503.51 K, 1210.7 kPa | 107.3
503.51 K, 3055.8 kPa | 383.4
503.51 K, 4251.2 kPa | 624.7
503.52 K, 3562.4 kPa | 489.3
503.52 K, 4964.5 kPa | 731.5
503.53 K, 3855.8 kPa | 552
503.53 K, 5577.4 kPa | 795.6
503.53 K, 6079.9 kPa | 842.3
503.53 K, 6319.5 kPa | 859.5
503.53 K, 8592.1 kPa | 976.8
513.49 K, 2121.4 kPa | 208.3
513.49 K, 2565.8 kPa | 269.6
513.5 K, 1245.5 kPa | 107.3
513.5 K, 4646.1 kPa | 624.4
513.5 K, 5488.2 kPa | 731.1
513.5 K, 8416.4 kPa | 928.9
513.51 K, 3244.9 kPa | 383.2
513.52 K, 4177.8 kPa | 551.7
513.52 K, 6780.4 kPa | 841.9
513.52 K, 7055 kPa | 859.1
513.53 K, 3830.9 kPa | 489
513.53 K, 9599.7 kPa | 976.4
513.54 K, 6204.5 kPa | 795.2
523.49 K, 2682.3 kPa | 269.5
523.49 K, 5040.8 kPa | 624.1
523.49 K, 9308.2 kPa | 928.5
523.5 K, 1281.4 kPa | 107.2
523.5 K, 2203.4 kPa | 208.2
523.5 K, 3433 kPa | 383
523.52 K, 4099.2 kPa | 488.8
523.52 K, 6015.2 kPa | 730.8
523.53 K, 6832.9 kPa | 794.9
523.53 K, 7485.5 kPa | 841.5
523.54 K, 4499.9 kPa | 551.5
523.54 K, 7793.7 kPa | 858.7
